Experimental data published in patent publication US20230332245A1, “Complement as Prognostic and Predictive Biomarker and Potential Therapeutic Target in Renal Cell Carcinoma” (Texas Tech University System, priority 2020, published 2023).

How the values were obtained:
Assay type in all cases: in vivo, mouse
[1] = test system: CD8^+ T cells in tumors (TIL); test: Flow cytometry of CD8+ T cells (TIL) and IFN-γ expressing TIL in Renca tumors
Method: Mouse studies were approved by the Institutional Animal Care and Use Committee of the Texas Tech University Health Sciences Center. Eight to twelve weeks old BALB/c, C3ar1, and C5ar1 knockout mice from the Jackson Laboratory were injected s.c. with 1×10^6 Renca cells (ATCC® CRL2947™). When tumors reached ˜5 mm in diameter mice were assigned to treatment cohorts and treated with, C3aR1 inhibitor SB 290157 (Sigma-Aldrich, 10 mg/kg i.p. twice a day), C5aR1 inhibitor PMX53 [17] (1 mg/kg, i.p. every other day), or PD-1 antibody (RMP1-14, BE-0146, Bio X Cell, 250 μg per mouse i.p. every 4 days), or RaIgG2a isotype control (BE-0089, Bio X Cell, 250 μg i.p. every 4 days), as previously described. […]
Cells from tumors were pre-incubated with CD16/32 antibody (Fc block; 2.4G2; BD Pharmingen) and stained with fluorochrome-conjugated antibodies from Biolegend: BV605-CD45 (30-F11), AF700-CD3 (17A2), PerCP/Cy5.5-CD4 (GK1.5), and PE/Cy7-CD8α (53-6.7) as recommended by the manufacturer. To quantify IFN-γ expression, cells were stained with surface markers and permeabilized with Cytofix/Cytoperm (554714, BD Biosciences), and washed with 1× Perm/Wash buffer (554714, BD Biosciences) followed by incubation with PE-IFN-γ (XMG1.2, Biolegend). […] Data were acquired on BD Fortessa and analyzed with FlowJo software (Tree Star).

[2] = test system: Renca cells; test: Tumor growth in anti-PD-1-recalcitrant Renca model of RCC; settings: BALB/c mice, s.c. Renca tumors; vs placebo (PBS) or isotype IgG; FIG. 6A, 6C
Method: (§1) Mouse studies were approved by the Institutional Animal Care and Use Committee of the Texas Tech University Health Sciences Center. Eight to twelve weeks old BALB/c, C3ar1, and C5ar1 knockout mice from the Jackson Laboratory were injected s.c. with 1×10^6 Renca cells (ATCC® CRL2947™). When tumors reached ˜5 mm in diameter mice were assigned to treatment cohorts and treated with, C3aR1 inhibitor SB 290157 (Sigma-Aldrich, 10 mg/kg i.p. twice a day), C5aR1 inhibitor PMX53 [17] (1 mg/kg, i.p. every other day), or PD-1 antibody (RMP1-14, BE-0146, Bio X Cell, 250 μg per mouse i.p. every 4 days), or RaIgG2a isotype control (BE-0089, Bio X Cell, 250 μg i.p. every 4 days), as previously described. CD8^+ T cells were depleted by intraperitoneal (i.p.) injection of 200 μg of CD8a-neutralizing antibody (2.43, Bio X cell, NH) per mouse, each day, for three consecutive days, prior to injecting tumor cells. […] BALB/c control mice were treated in the same manner with rat IgG2b (LTF-2, Bio X cell).
To test in vivo the role of complement proteins, the inventors used RCC-Renca (ATCC® CRL-2947™), a murine RCC model that while differing from human RCC, has been extensively evaluated in immunotherapy studies and is known to be recalcitrant to ICI [34], and therefore, potentially resembles ICI-resistant RCC. […]

[3] = test system: genes associated with T cell exhaustion; proangiogenic genes; test: Real time quantitative PCR of gene expression in Renca tumors; settings: relative to placebo; FIG. 6K
Method: as §1
RNA was extracted from frozen tissue using RNeasy plus mini kit (Qiagen) and cDNA was generated using High-Capacity RNA-to-cDNA™ kit (Applied Biosystems). […] Relative expression was calculated using the 2^−ΔΔCt method and RT2 profiler PCR Array Data Analysis (SAB Biosciences) and normalized to GAPDH.

Compound	TIL function: production of IFN-γ upon ex-vivo restimulation ([1]; FACS after CD3/CD28 restimulation, FIG. 6G-6J)	tumor growth (tumor volumes) [2]	expression of genes associated with T cell exhaustion (Pdcd1, Ctla4, Btla, Fas, Stat3) in tumors [3]	recruitment of CD8+ T cells to tumors (TIL) ([1]; FACS, FIG. 6D, 6F)
NC(N)=NCCC[C@H](NC(=O)COCC(c1ccccc1)c1ccccc1)C(=O)O [SB290157]	highest production of IFN-γ	reduced tumor growth	Btla and Fas were upregulated	–
PMX53	–	reduced tumor growth	reduction in the expression	influx CD8^+ T cells to tumors
